Data on ten molecules can be found in ChEMBL document CHEMBL1123729, “Synthesis and biological activity of partially modified retro-inverso pseudopeptide derivatives of the C-terminal tetrapeptide of gastrin” (J Med Chem, 1987).

Active and inactive are the calls of the source. The calls are words filed in the database; no cut-off is given here. Peptide text beside a SMILES is read from it. * marks the point of attachment. Boc = CC(C)(C)OC(=O)*

In test [1] the test system is Rattus norvegicus. In words: Agonistic activity against gastrin induced acid secretion in the anesthetized rats at a dose of 3 mg/kg;*=1/4 of the agonistic activity. In kind it is functional, organism-based. More on the design: dose 3 mg/kg. Particulars: filed as partial agonist.
The subject of test [2] is Rattus norvegicus. In words: Effective dose required to inhibit gastrin-induced acid secretion in the in situ perfused rat stomach (anesthetized rat). In kind it is functional.
In test [3] the test system is Rattus norvegicus. Kind of test: Agonistic activity against gastrin induced acid secretion in the anesthetized rats; No agonist activity at doses as high as 3 mg/kg. The format is functional, organism-based. More on the design: dose 3 mg/kg.
For test [4], the system named is Rattus norvegicus. In words: Agonistic activity against gastrin induced acid secretion in the anesthetized rats at a dose of 3 mg/kg; **** indicate full activity of tetragastrin. In kind it is functional, organism-based. Details: dose 3 mg/kg. Particulars: filed as agonist.

For `CCCC[C@@H](NC(=O)[C@H](CC(=O)O)NC(=O)NCc1ccccc1)NC(=O)[C@@H](Cc1c[nH]c2ccccc12)NC(=O)OC(C)(C)C`, the Agonist activity result in the test with Rattus norvegicus [1] was “Partial agonist”. For the same molecule, the ED50 in the test with Rattus norvegicus [2] was 1.1 µmol/kg. Take `CC(C)C[C@H](NC(=O)[C@@H](Cc1c[nH]c2ccccc12)NC(=O)OC(C)(C)C)C(=O)N[C@H](CC(=O)O)NC(=O)CCc1ccccc1`: the ED50 in the test on Rattus norvegicus [2] stood at 0.15 µmol/kg. In addition, in the test with Rattus norvegicus [3], the Agonist activity entry was “inactive”. In turn, `CCCCOC(=O)CCNC(=O)[C@H](Cc1c[nH]c2ccccc12)NC(=O)[C@@H](CCCC)NC(=O)[C@H](CC(=O)O)NC(=O)CCc1ccccc1` registered an ED50 with Rattus norvegicus [2] of 10.4 µmol/kg. For the molecule `CCCC[C@@H](NC(=O)[C@H](CC(=O)O)NC(=O)CCc1ccccc1)NC(=O)[C@@H](Cc1c[nH]c2ccccc12)NC(=O)OC(C)(C)C`, in the test with Rattus norvegicus [1], the Agonist activity entry is “Partial agonist”. Further, it took a dose of 2.5 µmol/kg to reach the 50% effect level in the test on Rattus norvegicus [2] (ED50). With `CCCN(CCC)C(=O)C(CCC(=O)O)NC(=O)c1ccccc1` (configuration not stated) [PROGLUMIDE], in the test on Rattus norvegicus [2], the 50% effect level (ED50) was put at a dose of 350 µmol/kg. In addition, the Agonist activity result in the test on Rattus norvegicus [3] is “inactive”. With `CC(C)C[C@H](NC(=O)[C@@H](Cc1c[nH]c2ccccc12)NC(=O)OC(C)(C)C)C(=O)N[C@H](CC(=O)O)NC(=O)C(Cc1ccccc1)C(N)=O` (some centres not stated), the Agonist activity result in the test with Rattus norvegicus [1] is “Partial agonist”. In the test with Rattus norvegicus [2], this molecule had an ED50 of 0.3 µmol/kg.

Turning to `CCCCOC(=O)CCNC(=O)[C@H](Cc1c[nH]c2ccccc12)NC(=O)[C@@H](CCCC)NC(=O)[C@H](CC(=O)O)NC(=O)NCc1ccccc1`, the Agonist activity result with Rattus norvegicus [3] is “inactive”. `CC(C)C[C@H](NC(=O)[C@H](Cc1c[nH]c2ccccc12)NC(=O)OC(C)(C)C)C(=O)N[C@H](CC(=O)O)NC(=O)NCc1ccccc1` displayed an ED50 in the test on Rattus norvegicus [2] of 0.9 µmol/kg. The Agonist activity result in the test on Rattus norvegicus [3] was “inactive”. Consider `CC(C)C[C@H](NC(=O)[C@H](Cc1c[nH]c2ccccc12)NC(=O)OC(C)(C)C)C(=O)N[C@@H](CC(=O)O)C(=O)N[C@@H](Cc1ccccc1)C(N)=O` (Boc-WLDF-NH2), for which the Agonist activity result in the test with Rattus norvegicus [4] is “Agonist”. On to `CC(C)C[C@@H](NC(=O)[C@H](CC(=O)O)NC(=O)C(Cc1ccccc1)C(N)=O)NC(=O)[C@@H](Cc1c[nH]c2ccccc12)NC(=O)OC(C)(C)C` (some centres not stated), for which, in the test with Rattus norvegicus [1], the Agonist activity entry was “Partial agonist”. In addition, the ED50 in the test on Rattus norvegicus [2] turned out to be 0.15 µmol/kg.
